{"source": "a melting point compilation (Tetko et al.; mined from patent text by program, amines drawn as free bases though some values may be those of a salt)"}
{"units": {"melting point": "°C"}}
{"molecule": "O=C(Nc1ccc(OCCN2CCOCC2)c2ccccc12)c1cc(N2CCOCC2)ncn1", "melting point": "50 to 51"}
{"molecule": "CN1CCN(C(=O)c2ccc(-c3cnc4c(c3)N(C(=O)c3cc(F)ccc3F)CCN4)cc2)CC1", "melting point": "201 to 203"}
{"molecule": "COc1ccc(COCc2nnc3n2-c2ccc(Cl)cc2C(c2ccccc2)=NC3)cc1", "melting point": "157 to 159"}
{"molecule": "O=C(O)[C@@H]1Cc2ccccc2N1C(=O)CN1CCN(Cc2ccc(Cl)cc2)CC1", "melting point": "219 to 221"}
{"molecule": "O=C(Cc1ccncc1)NC(Cc1csc2ccccc12)C(=O)CCc1cc(C(F)(F)F)cc(C(F)(F)F)c1", "note": "(centres undefined)", "melting point": "184 to 187"}
{"molecule": "O=Cc1cccc2c1CN(c1ccccc1)C2", "melting point": "120 to 122"}
{"molecule": "Cc1ccc(NC(=O)c2cccnc2Oc2cccc(Cl)c2)cc1", "melting point": "140 to 143"}
{"molecule": "O=[N+]([O-])c1ccc(Cc2cccnc2)cc1", "melting point": "87 to 88"}
{"molecule": "Brc1ccc(OCCCCCN2CCN(c3nccs3)CC2)cc1", "melting point": "73 to 75"}
{"molecule": "COc1ccccc1SCCC(=O)O", "melting point": "91 to 91.5"}
{"molecule": "CCOC(=O)c1c(C)cc(NC(C)=O)c(C(=O)O)c1C", "melting point": "170 to 171"}
{"molecule": "COC(=O)c1csc(-c2snnc2-c2ccccc2)n1", "melting point": 124}
{"molecule": "CCCC[C@H](NC(=O)CC[C@H](C)CNC(=O)COc1ccccc1)C(=O)CS(=O)(=O)Cc1ccco1", "melting point": "120 to 121"}
{"molecule": "O=C(c1ccc(Cl)cc1)c1cnc2ccc(Cl)cc2c1O", "melting point": "> 260"}
{"molecule": "CC(=O)Nc1nc(Cl)c2c(ncn2COC(COC(C)C)COC(C)C)n1", "melting point": "73 to 75"}
{"molecule": "O=C(O)c1cc(C#Cc2ccccc2)c(C(=O)O)cc1C#Cc1ccccc1", "melting point": "> 360"}
{"molecule": "Cc1cc(=O)c2[nH]nc(-c3ccc(Cl)cc3)c2[nH]1", "melting point": "324 to 327"}
{"molecule": "COc1cccc(CBr)c1CBr", "melting point": "78 to 79"}
{"molecule": "CCn1cc(C(=O)O)c(=O)cc1-c1cc(OC)c(OC)c(OC)c1", "melting point": "200 to 201"}
{"molecule": "Fc1cc2c(Nc3ccc(Cl)c(Br)c3)ncnc2cn1", "melting point": "271 to 275"}
{"molecule": "COc1ccc(C=Cc2cccc(C(=O)O)c2)cc1OC1CCCC1", "melting point": "93 to 94"}
{"molecule": "CCCCCCCCCCCCS(=O)(=O)N1CCCSC1=C[N+](=O)[O-]", "melting point": "116 to 117"}
{"molecule": "O=S1(=O)CC(=Cc2ccc(Cl)cc2)C2=NN(c3ccccc3)C(c3ccc(Cl)cc3)C2C1", "note": "(centres undefined)", "melting point": "246 to 249"}
{"molecule": "Cc1ccccc1NC(C(=O)O)c1c(Cl)ccc(Cl)c1Cl", "note": "(centres undefined)", "melting point": 193}
{"molecule": "CC(C)c1c2n(c(=O)c3ccccc13)CCCS2", "melting point": "123 to 124"}
{"molecule": "CCOCc1nc2c(N)nc3cc(-c4cccnc4)ccc3c2n1CCNC(=O)C(C)C", "melting point": "213 to 215"}
{"molecule": "COC(=O)c1ccc(Br)cc1CBr", "melting point": "78 to 79"}
{"molecule": "COC(=O)CC[C@H](NC(=O)c1ccc(NCCc2c(N(C(C)=O)C(C)=O)nc(NC(C)=O)[nH]c2=O)cc1)C(=O)OC", "melting point": "168 to 178"}
{"molecule": "COc1ccc(CCNC(=O)CCCCC(=O)NCCc2ccc(OC)c(OC)c2CCc2cccc(OC)c2)cc1", "melting point": "153 to 155"}
{"molecule": "CCN(c1ccc(Cl)cc1[N+](=O)[O-])S(=O)(=O)c1ccc(C)cc1", "melting point": "132 to 134"}
{"molecule": "O=C(Nc1ccccc1)Nc1ccnc(O)c1", "melting point": "198 to 200"}
{"molecule": "CN(C)C1CCN(Cc2ccc(COc3cccc4c3CN(C3CCC(=O)NC3=O)C4=O)cc2)CC1", "note": "(centres undefined)", "melting point": "209 to 211"}
{"molecule": "Cc1oc(-c2ccccc2)nc1COc1ccc2c(c1)CCC(C=O)=C2", "melting point": "114 to 115"}
{"molecule": "CN(C)Cc1c(-c2cc(C(C)(C)C)c(O)c(C(C)(C)C)c2)nc2n1CCS2", "melting point": "188 to 191"}
{"molecule": "CC(C)(CCN1CCc2ccc(S(=O)(=O)Nc3cccc(Cl)c3)cc2C1)C(=O)O", "melting point": 120}
{"molecule": "COc1ccc(C(C)(C)C)c(O)c1C(=O)Nc1ccc(S(=O)(=O)C(F)(F)F)cc1Cl", "melting point": "198 to 199"}
{"molecule": "CC1(c2ccccc2)C(=O)Nc2cc(Cl)c(Cl)cc2C1=O", "note": "(centres undefined)", "melting point": "213 to 214"}
{"molecule": "N#Cc1cc(Cl)cc2c1OC(C(F)(F)F)C(C(=O)O)=C2", "note": "(centres undefined)", "melting point": "238 to 240"}
{"molecule": "CS(=O)(=O)c1cc(C(=O)O)cc(Cl)c1Nc1ccccc1", "melting point": "187 to 189"}
{"molecule": "O=C(CCCCCNC(=O)[C@H](Cc1c[nH]c2ccccc12)NC(=O)Cc1ccc2ccccc2c1)NO", "melting point": "112 to 114"}
{"molecule": "COc1cccc(Oc2c(NS(=O)(=O)c3ccc(C(C)(C)C)cc3)nc(C(=O)Nc3ccccc3)nc2OCCO)c1", "melting point": 143}
{"molecule": "CCC(=O)OC(C#N)C(C#N)c1cccc(OC)c1", "note": "(centres undefined)", "melting point": 73}
{"molecule": "COC(=O)C(=O)c1ccc(OCCCOc2ccccc2)cc1", "melting point": "61 to 62"}
{"molecule": "Cc1ccc([N+](=O)[O-])c2c1CCN2", "melting point": "125 to 127"}
{"molecule": "COc1cccc(C(=O)Nc2ccc(Cn3cnc(O)c3C(N)=O)cc2)c1", "melting point": "257 to 259"}
{"molecule": "C[C@@H]1Cc2ccsc2[C@H](C)N1CCNC(=O)c1ccccn1", "note": "(relative stereo)", "melting point": "116 to 120"}
{"molecule": "CC(C)=CCCC(C)=CCOc1ccc(C(=O)NCC(=O)Nc2ccccn2)cc1", "melting point": "105 to 106"}
{"molecule": "CCOc1ccc(CCNC(=O)/C=C/c2cccs2)cc1S(=O)(=O)NC(=S)NC", "melting point": 74}
{"molecule": "CCOC(=O)Oc1ccc([N+](=O)[O-])c(C(=O)O)c1", "melting point": "132 to 137"}
{"molecule": "CC(Cl)c1nc2ccccc2c(=O)o1", "note": "(centres undefined)", "melting point": 90}
{"molecule": "COc1ccc(COC/C(=C/c2ccc(C(=O)O)cc2)Cn2ccnc2)cc1", "melting point": "120 to 122"}
{"molecule": "COc1ccc2cc(-c3cccnc3)cc(C)c2n1", "melting point": "117 to 118"}
{"molecule": "CCOc1ccc(C(=O)NCCc2ccc(S(=O)(=O)NC(=O)c3ccc(C(=O)NCC(=O)O)nc3)cc2)cc1OCC", "melting point": "> 230"}
{"molecule": "Cc1c(C(F)(F)C(F)(F)F)ncn1-c1ncc(C(F)(F)F)cc1Cl", "melting point": 71}
{"molecule": "N#CCCSN1C(=O)COCC1=O", "melting point": "121 to 122"}
{"molecule": "O=C(O)c1nc(Oc2cccc(C(F)(F)F)c2)ccc1Cl", "melting point": "90 to 92"}
{"molecule": "N#Cc1cc(C(F)(F)F)nn1-c1ccc(NC(=O)c2cccnc2F)cc1", "melting point": "150 to 151"}
{"molecule": "COC(=O)CCCc1cc2cc(Cl)ccc2n1S(=O)(=O)c1ccc2nc(NC(C)=O)sc2c1", "melting point": 120}
{"molecule": "O=C(O)CC1(C(=O)O)CCc2cc3ccccc3n2C1", "note": "(centres undefined)", "melting point": "185 to 188"}
{"molecule": "O=C(CCl)Nc1ccncc1O", "melting point": "155 to 158"}
{"molecule": "COC(=O)c1cc(Cl)sc1S(=O)(=O)Cl", "melting point": "95 to 97"}
{"molecule": "Cc1cccc(C)c1-c1cccc2c1CC(CN)O2", "note": "(centres undefined)", "melting point": "> 250"}
{"molecule": "CCn1c(COC(=O)NC(=O)c2ccc(Cl)cc2)nc(C(C)C)c1Sc1cc(Cl)cc(Cl)c1", "melting point": "82 to 83"}
{"molecule": "OCc1ccccc1OCc1ncc2ccccc2n1", "melting point": "92 to 96"}
{"molecule": "COc1ccc(S(=O)(=O)C2CC(=O)NC2=O)cc1", "note": "(centres undefined)", "melting point": "144 to 146"}
{"molecule": "COc1c(Cl)cc(CNc2ccccc2[N+](=O)[O-])cc1Cl", "melting point": 128}
{"molecule": "O=C(O)CN1C(=O)C(=Cc2c[nH]c3ccccc23)SC1=S", "melting point": "> 300"}
{"molecule": "C#CCn1c(C(F)(F)F)c(C(O)C#C)c2ccccc21", "note": "(racemic)", "melting point": 98}
{"molecule": "Cc1cc(C(=O)NCCc2ccc(CCC(=O)O)cc2)n[nH]1", "melting point": "202 to 205"}
{"molecule": "NNc1nc(Cl)nc2c(Cl)cc(Cl)cc12", "melting point": "> 280"}
{"molecule": "ClC1=NC(Cl)(Cl)N=C1Cl", "melting point": "85 to 87"}
{"molecule": "C=CCOC(=O)c1ccc(N=C(SC)c2ccc(OC)c(C34CC5CC(CC(C5)C3)C4)c2)cc1", "melting point": "50 to 53"}
{"molecule": "O=c1ccc(-c2ccc([N+](=O)[O-])c(C(F)(F)F)c2)n[nH]1", "melting point": "238 to 241"}
{"molecule": "O=c1cc(-c2ccccc2)oc2cccc(F)c12", "melting point": "144 to 145"}
{"molecule": "CSc1ccc2c3c(cccc13)C(=O)N2C(C)C", "melting point": "70 to 71"}
{"molecule": "NC(=O)CNC(=O)c1cncc(-c2cccc3cc(Cc4cc(F)cc(Cl)c4)sc23)c1", "melting point": "176 to 177"}
{"molecule": "C[C@@H](F)c1nc(N)nc(N[C@@H]2CCOc3ccccc32)n1", "melting point": "110 to 112"}
{"molecule": "Cn1ncnc1COc1nc2c(cc1-c1ccco1)nnn2-c1ccccc1F", "melting point": "170 to 173"}
{"molecule": "O=C(c1c(F)cccc1F)N1CNCN(c2ccc(Oc3ccc(C(F)(F)F)cc3Cl)cc2F)C1=O", "melting point": "135 to 137"}
{"molecule": "COc1ccc(C2=NN(c3ccc(Cl)cc3)C(=O)[C@H]3CC=CC[C@@H]23)cc1OC", "note": "(relative stereo)", "melting point": "140 to 141"}
{"molecule": "N#CSc1ccc(-c2nc3ccc(N)c(SC#N)c3nc2-c2ccco2)o1", "melting point": "185 to 187"}
{"molecule": "Fc1ccc(-c2ncn(CCCN3CCOCC3)c2-c2ccnc(Cl)c2)cc1", "melting point": "97 to 97.5"}
{"molecule": "CCn1cc(C(=O)O)c(=O)c2cc(F)c(N3CC4CCC3CN4)cc21", "note": "(centres undefined)", "melting point": "270 to 272"}
{"molecule": "FC(F)(F)c1ccc(CN2CCNc3ncc(I)cc32)o1", "melting point": "153 to 154"}
{"molecule": "CCOC(=O)c1cnc2c(cnn2-c2ccccc2)c1O", "melting point": "149 to 150"}
{"molecule": "CC(C)OC(=O)c1cc(NC(=O)C(C)(C)C)c(F)cc1Cl", "melting point": "81 to 83"}
{"molecule": "CCCCOCCOc1ccc(-c2ccc3c(c2)C=C(C(=O)Nc2ccc(S(=O)Cc4nccn4CCCC(=O)NC)cc2)CCN3CC(C)C)cc1", "note": "(centres undefined)", "melting point": "159 to 161"}
{"molecule": "Cc1cc(OC(=O)N[C@@H](CCC(=O)O)C(=O)O)ccc1N(CCCl)CCCl", "melting point": "160 to 162"}
{"molecule": "O=S(=O)(Nc1cnc(-n2ccnc2)nc1NCc1ccc(Br)cc1)c1ccc(Cl)cc1", "melting point": "183 to 185"}
{"molecule": "Cc1csn(-c2ccc(Cl)cc2)c1=O", "melting point": "157 to 159"}
{"molecule": "O=[N+]([O-])c1cc2nc(O)c(O)nc2cc1Br", "melting point": "> 300"}
{"molecule": "O=C1c2nccc(-c3ccccc3NC(=O)C(F)(F)F)c2C(=O)c2c([N+](=O)[O-])ccnc21", "melting point": 158}
{"molecule": "O=S(=O)(Nc1cccc(COc2cccc3cccnc23)c1)c1ccc(F)cc1", "melting point": "206 to 207"}
{"molecule": "Nc1c2c(nc3ccc(F)cc13)CCCC2", "melting point": "229 to 230"}
{"molecule": "CCOC(=O)N1CCC(c2noc(-c3cc(Cl)c(N)c4c3OCC4)n2)CC1", "melting point": 162}
{"molecule": "O=C(CCc1cccnc1)NCCCCC1CCN(C(c2ccccc2)c2ccccc2)CC1", "melting point": 139}
{"molecule": "C#Cc1cn(C2CC(O)C(CO)O2)c(=O)nc1N", "note": "(centres undefined)", "melting point": "162 to 165"}
{"molecule": "O=C(CCc1cccnc1)NCCCCC1CCN(P(=O)(c2ccccc2)c2ccccc2)CC1", "melting point": "134 to 135"}
{"molecule": "CC(C)c1ccccc1S(=O)(=O)c1ccc(O)cc1", "melting point": 160}
